Data reported in ChEMBL document CHEMBL1150386 (J Med Chem, 2008).

Tests used:
Acetylcholinesterase [1] = molecular target: T1, Acetylcholinesterase (Torpedo californica, UniProt P04058); assay: Inhibition of Torpedo californica AChE assessed as carbamylation; set-up: species or system Tetronarce californica
Acetylcholinesterase [2] = molecular target: Acetylcholinesterase (Homo sapiens, UniProt P22303); assay: Binding affinity to human AChE
Cholinesterase [3] = molecular target: Cholinesterase (Mus musculus, UniProt Q03311)
Description: Inhibition of mouse BuChE

Acetylcholinesterase [4] = molecular target: T1, Acetylcholinesterase
Acetylcholinesterase [5] = molecular target: T2, Acetylcholinesterase (Mus musculus, UniProt P21836)
T2 sequence (P21836 whole entry): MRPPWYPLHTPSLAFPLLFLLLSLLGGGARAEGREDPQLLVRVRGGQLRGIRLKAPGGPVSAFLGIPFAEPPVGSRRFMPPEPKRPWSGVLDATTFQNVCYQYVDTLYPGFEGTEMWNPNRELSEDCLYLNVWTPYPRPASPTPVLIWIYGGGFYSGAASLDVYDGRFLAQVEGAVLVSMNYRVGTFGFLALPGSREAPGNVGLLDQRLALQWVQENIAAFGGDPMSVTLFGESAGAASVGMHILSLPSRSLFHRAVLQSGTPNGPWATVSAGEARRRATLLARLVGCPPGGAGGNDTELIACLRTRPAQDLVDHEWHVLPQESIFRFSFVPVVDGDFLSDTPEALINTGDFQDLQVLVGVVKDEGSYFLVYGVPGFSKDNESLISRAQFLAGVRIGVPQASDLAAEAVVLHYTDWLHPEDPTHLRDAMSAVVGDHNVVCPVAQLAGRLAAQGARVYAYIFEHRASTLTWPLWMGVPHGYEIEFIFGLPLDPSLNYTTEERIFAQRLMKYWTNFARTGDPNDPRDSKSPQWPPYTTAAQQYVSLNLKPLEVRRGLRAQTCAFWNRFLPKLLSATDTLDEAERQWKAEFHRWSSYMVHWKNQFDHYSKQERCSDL
Description: Binding affinity to mouse AChE by equilibrium binding assay

Acetylcholinesterase [6] = molecular target: T2, Acetylcholinesterase; remark: listed apart in the source
Description: Binding affinity to mouse AChE

Acetylcholinesterase [7] = molecular target: T3, Acetylcholinesterase (Rattus norvegicus, UniProt P37136)
T3 sequence (P37136 whole entry): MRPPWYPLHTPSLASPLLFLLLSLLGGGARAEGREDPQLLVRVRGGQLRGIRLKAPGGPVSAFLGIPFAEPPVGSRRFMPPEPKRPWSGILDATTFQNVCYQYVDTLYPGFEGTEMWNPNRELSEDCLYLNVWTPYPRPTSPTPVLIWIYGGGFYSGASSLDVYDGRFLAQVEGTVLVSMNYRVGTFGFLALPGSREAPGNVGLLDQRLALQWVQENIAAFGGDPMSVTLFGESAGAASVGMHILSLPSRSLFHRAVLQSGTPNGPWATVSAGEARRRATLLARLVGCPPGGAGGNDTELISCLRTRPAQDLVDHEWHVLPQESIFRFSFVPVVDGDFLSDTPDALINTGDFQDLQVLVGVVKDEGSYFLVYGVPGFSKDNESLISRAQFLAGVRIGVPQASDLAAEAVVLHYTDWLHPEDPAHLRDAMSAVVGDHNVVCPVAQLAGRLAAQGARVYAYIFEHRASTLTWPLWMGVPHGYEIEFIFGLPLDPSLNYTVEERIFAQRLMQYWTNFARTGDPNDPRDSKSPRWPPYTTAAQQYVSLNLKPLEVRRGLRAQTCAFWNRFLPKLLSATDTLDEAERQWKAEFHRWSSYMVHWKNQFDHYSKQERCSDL

Butyrylcholinesterase = Butyrylcholinesterase (Rattus norvegicus, UniProt Q9JKC1)
Acetylcholinesterase [8] = molecular target: T4, Acetylcholinesterase (Bos taurus, UniProt P23795); assay: Inhibition of bovine AChE
T4 sequence (P23795 whole entry): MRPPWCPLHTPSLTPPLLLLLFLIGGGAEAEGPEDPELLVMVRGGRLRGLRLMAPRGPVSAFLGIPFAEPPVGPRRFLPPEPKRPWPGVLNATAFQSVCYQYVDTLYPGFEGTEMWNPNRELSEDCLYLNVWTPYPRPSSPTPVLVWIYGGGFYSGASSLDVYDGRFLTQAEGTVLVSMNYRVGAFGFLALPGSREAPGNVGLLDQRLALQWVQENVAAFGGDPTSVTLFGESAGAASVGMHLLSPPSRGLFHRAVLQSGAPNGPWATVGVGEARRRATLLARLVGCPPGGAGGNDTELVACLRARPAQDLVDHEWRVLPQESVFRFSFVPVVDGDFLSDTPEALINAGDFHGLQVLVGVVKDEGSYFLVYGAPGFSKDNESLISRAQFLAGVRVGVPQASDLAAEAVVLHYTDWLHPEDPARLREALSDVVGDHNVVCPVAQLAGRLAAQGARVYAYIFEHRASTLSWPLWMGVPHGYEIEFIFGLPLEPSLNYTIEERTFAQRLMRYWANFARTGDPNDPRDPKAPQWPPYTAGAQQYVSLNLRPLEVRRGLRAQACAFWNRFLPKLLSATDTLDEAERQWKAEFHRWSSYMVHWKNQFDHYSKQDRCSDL

Cholinesterase [9] = molecular target: Cholinesterase (Equus caballus, UniProt P81908); assay: Inhibition of horse BuChE
[10] = Ratio of Ki for fetal bovine serum AChE to Ki for horse BuChE

T1 sequence (P04058 whole entry): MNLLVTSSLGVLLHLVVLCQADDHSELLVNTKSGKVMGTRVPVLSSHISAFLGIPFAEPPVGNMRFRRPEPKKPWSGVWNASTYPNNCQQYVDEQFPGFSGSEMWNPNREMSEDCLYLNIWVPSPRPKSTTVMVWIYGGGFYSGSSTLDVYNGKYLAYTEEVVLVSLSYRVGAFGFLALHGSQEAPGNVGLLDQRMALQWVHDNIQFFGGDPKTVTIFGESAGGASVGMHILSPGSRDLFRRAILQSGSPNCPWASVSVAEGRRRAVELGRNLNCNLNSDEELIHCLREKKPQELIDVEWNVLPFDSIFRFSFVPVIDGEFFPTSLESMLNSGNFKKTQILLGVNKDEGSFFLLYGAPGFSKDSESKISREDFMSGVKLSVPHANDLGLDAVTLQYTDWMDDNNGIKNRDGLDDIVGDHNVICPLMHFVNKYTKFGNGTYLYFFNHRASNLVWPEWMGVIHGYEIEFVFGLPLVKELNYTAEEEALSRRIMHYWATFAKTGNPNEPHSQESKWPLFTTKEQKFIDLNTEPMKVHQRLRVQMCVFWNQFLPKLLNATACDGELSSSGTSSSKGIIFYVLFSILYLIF
Cholinesterase (Mus musculus, UniProt Q03311), sequence (Q03311 whole entry): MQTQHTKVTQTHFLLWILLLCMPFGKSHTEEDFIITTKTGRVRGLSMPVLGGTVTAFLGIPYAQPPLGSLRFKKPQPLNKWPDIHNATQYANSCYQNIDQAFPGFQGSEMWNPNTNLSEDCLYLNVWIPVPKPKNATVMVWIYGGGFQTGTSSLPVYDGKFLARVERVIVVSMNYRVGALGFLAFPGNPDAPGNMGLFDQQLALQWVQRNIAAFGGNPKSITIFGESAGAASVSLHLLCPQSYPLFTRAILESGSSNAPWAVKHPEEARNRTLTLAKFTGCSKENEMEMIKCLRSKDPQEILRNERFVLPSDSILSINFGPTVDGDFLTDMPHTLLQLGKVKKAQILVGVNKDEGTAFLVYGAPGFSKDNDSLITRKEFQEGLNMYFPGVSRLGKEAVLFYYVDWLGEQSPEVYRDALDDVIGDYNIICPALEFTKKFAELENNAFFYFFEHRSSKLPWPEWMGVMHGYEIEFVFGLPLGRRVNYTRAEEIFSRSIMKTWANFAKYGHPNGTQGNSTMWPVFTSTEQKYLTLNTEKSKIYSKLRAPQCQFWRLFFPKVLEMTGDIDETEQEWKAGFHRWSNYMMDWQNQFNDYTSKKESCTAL
Cholinesterase (Equus caballus, UniProt P81908), sequence (P81908 whole entry): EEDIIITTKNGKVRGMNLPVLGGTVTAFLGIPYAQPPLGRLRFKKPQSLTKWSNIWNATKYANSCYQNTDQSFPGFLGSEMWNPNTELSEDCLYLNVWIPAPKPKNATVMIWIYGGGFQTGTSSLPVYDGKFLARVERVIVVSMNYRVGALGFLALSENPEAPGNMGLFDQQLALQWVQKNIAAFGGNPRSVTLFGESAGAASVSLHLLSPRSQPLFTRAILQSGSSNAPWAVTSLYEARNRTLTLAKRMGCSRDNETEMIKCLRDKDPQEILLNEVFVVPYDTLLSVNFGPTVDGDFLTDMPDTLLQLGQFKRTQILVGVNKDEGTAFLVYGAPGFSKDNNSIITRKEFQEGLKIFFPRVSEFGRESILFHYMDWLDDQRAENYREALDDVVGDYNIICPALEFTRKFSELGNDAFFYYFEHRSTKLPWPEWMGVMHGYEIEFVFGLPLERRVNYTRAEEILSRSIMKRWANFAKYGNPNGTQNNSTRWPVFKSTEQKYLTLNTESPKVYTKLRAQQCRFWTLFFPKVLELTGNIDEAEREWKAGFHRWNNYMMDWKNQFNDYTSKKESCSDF
Butyrylcholinesterase, sequence (Q9JKC1 whole entry): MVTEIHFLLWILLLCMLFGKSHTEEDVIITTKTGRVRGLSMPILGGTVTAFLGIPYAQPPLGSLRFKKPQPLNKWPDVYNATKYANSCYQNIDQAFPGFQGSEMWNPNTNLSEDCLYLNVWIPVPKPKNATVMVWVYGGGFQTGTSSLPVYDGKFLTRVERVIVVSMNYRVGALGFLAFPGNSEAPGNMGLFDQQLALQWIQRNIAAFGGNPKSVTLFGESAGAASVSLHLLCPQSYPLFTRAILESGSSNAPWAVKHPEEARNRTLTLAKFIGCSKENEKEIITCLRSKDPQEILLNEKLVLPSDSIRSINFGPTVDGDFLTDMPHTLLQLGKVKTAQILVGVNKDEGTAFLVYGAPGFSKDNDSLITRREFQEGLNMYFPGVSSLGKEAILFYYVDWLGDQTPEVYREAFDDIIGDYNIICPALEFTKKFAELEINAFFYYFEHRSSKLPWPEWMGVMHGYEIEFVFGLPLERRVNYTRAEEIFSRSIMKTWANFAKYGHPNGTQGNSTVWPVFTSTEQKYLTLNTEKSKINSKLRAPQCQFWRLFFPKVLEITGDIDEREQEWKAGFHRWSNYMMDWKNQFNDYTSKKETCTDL
Acetylcholinesterase (Homo sapiens, UniProt P22303), sequence (P22303 whole entry): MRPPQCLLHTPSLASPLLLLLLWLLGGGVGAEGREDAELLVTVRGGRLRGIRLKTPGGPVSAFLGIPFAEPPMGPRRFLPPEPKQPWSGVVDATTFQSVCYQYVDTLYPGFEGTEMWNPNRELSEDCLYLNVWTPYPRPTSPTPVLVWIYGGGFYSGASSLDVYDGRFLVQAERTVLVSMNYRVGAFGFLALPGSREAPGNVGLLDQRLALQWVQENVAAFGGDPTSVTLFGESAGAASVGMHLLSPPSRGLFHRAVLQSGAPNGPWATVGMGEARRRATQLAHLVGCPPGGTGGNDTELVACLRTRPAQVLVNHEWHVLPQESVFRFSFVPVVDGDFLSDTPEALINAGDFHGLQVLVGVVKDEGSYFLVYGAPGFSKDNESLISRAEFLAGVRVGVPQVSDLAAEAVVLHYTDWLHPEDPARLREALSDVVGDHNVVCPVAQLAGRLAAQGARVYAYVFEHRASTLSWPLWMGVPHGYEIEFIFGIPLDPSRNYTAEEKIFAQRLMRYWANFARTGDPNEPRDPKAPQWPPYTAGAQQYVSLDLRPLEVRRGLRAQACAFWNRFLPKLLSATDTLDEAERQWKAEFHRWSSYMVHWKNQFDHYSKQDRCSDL

Structure (SMILES): CCN(C)C(=O)Oc1cccc([C@H](C)N(C)C)c1 [RIVASTIGMINE]
- Ki (Acetylcholinesterase [1]): 2 min⁻¹ M⁻¹

Structure (SMILES): CCC1=CC2Cc3nc4cc(Cl)ccc4c(N)c3[C@@H](C1)C2 [HUPRINE X]
- Ki (Acetylcholinesterase [2]): 0.67 nM

Structure (SMILES): Nc1ccc2c(c1)c(-c1ccccc1)[n+](CCCCCCc1cnnn1CCNc1c3c(nc4ccccc14)CCCC3)c1cc(N)ccc21
- Ki (Cholinesterase [3]): 0.72 nM

Structure (SMILES): CCc1ccccc1NC(=O)Oc1ccc2c(c1)[C@]1(C)CCN(C)O[C@@H]1N2C [GANSTIGMINE]
- IC50 (Acetylcholinesterase [4]): 5.12 µM

Structure (SMILES): Nc1ccc2c(c1)c(-c1ccccc1)[n+](CCCCCCc1cn(CCNc3c4c(nc5ccccc35)CCCC4)nn1)c1cc(N)ccc21
- Ki (Cholinesterase [3]): 0.46 nM

Structure (SMILES): C[N+](C)(C)CCCCCCCCCC[n+]1c(-c2ccccc2)cc(N)c2ccc3ccc(N)cc3c21
- Kd (Acetylcholinesterase [5]): 160 µM
- Kd (Acetylcholinesterase [6]): 79 µM

Structure (SMILES): c1ccc2c(c1)NC1CCCCC1=C2NCCCCCCCCNC1CCNC2CCCCC21 (stereo unspecified)
- IC50 (Acetylcholinesterase [7]): 8.8 nM
- IC50 (Butyrylcholinesterase): 110 nM

Structure (SMILES): CC[N+](CC)(CCNC(=O)C(=O)NCC[N+](CC)(CC)Cc1ccccc1Cl)Cc1ccccc1Cl [AMBENONIUM]
- Kd (Acetylcholinesterase [5]): 46 µM
- Kd (Acetylcholinesterase [6]): 54 µM

Structure (SMILES): C=CC[N+](C)(C)c1ccc(CCC(=O)CCc2ccc([N+](C)(C)CC=C)cc2)cc1
- Ki (Acetylcholinesterase [8]): 57.1 nM

Structure (SMILES): NCCCCCCCCNc1c2c(nc3ccccc13)CCCC2
- IC50 (Acetylcholinesterase [7]): 1.5 nM

Structure (SMILES): CN(CCCNc1c2c(nc3ccccc13)CCCC2)CCCSc1c2c(nc3ccccc13)CCCC2
- Ki (Cholinesterase [9]): 4.2 nM
- Ratio Ki [10]: 2.17

Structure (SMILES): c1ccc2c(NCCCCCCCNc3c4c(nc5ccccc35)CCCC4)c3c(nc2c1)CCCC3
- Ki (Cholinesterase [9]): 2 nM
